Experimental data published in US11441144B2, “Methods of polynucleotide preparation using multivalent cation salt compositions” (Geron Corporation, priority 2015, dated 2022).

Test: Solubility of precipitate in 0.1M NaOH
Format: physicochemical
Settings: salts precipitated in a large excess of salt reagent
Description: The crystallization or precipitation of divalent or trivalent forms of Imetelstat was investigated using a large excess of inorganic salts of interest (900 equivalents, weight base). […] Three types of Imetelstat solution: crude Imetelstat solution (ammonium salt), purified Imetelstat (triethylammonium (TEA) salt form), and Imetelstat sodium (Na salt form), were mixed with each salt solution.
The solubilities of the precipitates isolated under the conditions of large excess of salt regent were initially investigated using the following solvents: water, acetonitrile, MeOH, EtOH, IPA (isopropyl alcohol), 0.1M NaOH, 0.1M HCl, 1M NaCl, and NMP.
(see Table 2). Solubility studies of Imetelstat precipitate obtained from a large excess of magnesium salt reagent were conducted in 1M NaCl solutions at different concentrations (2 mg/mL to 6 mg/mL) and under different pH conditions (pH 8, 9, 10, 11, 12) and analyzed by HPLC (see chromatograms of FIG. 1).

## BaCl2
  Solubility in a 0.1M NaOH and 1M NaCl solution: soluble
